{
  "source": "paper PMC5238433",
  "about": "(Scientific Reports, 2017)",
  "key": {"[1]": {"tested_on": "human α-adrenergic 2 A receptors", "conditions": "CHO-K1 cells expressing human α-adrenergic 2 A receptors (Gαi coupled), 0.15 to 333 nM, xCELLigence; ref not given (\"Recent studies\"); cited from earlier work", "source_text": "Recent studies used the xCELLigence system to monitor activation of endogenous GPCRs. […] Here, we also ..."}, "CHO-K1 cells": {"tested_on": "CHO-K1 cells", "set-up": "method as in not given (\"Recent studies\")", "conditions": "serum-deprived CHO-K1 cells, 5 pM to 5 μM, xCELLigence; ref not given (\"Recent studies\"); cited from earlier work"}, "[2]": {"tested_on": "angiotensin-converting enzyme 2 (ACE2)", "conditions": "cited from earlier work", "source_text": "The apelin receptor (APJ) is a member of the family A of G-protein-coupled receptors (GPCRs) and is involved in range of physiological and pathological functions including fluid homeostasis, anxiety, and depression, as well as cardiovascular and metabolic disorders. APJ was first identified as an orphan GPCR with closest identity to the angiotensin II (Ang II) receptor. In 1998, the peptide apelin was isolated from bovine stomach extracts as the endogenous ligand of APJ."}, "APJ homodimer": {"tested_on": "APJ homodimer", "experiment": "MALDI-TOF MS of immunoprecipitated APJ complex after treatment with HIV TAT-TMD interference peptides", "type": "binding, human", "conditions": "peptide 4 μM, 60 min, 37 °C", "source_text": "TMDs are important for the formation of head-to-head interfaces in class A GPCR dimers. To identify dimerization interfaces in the seven TMDs of APJ, the effects of cell-penetrating interference peptides (containing the sequence of the hydrophobic transmembrane helices) on APJ homodimerization were examined by MS.\nFigure 5 The effects of interference peptides on apelin receptor (APJ) homodimerization as measured by matrix assisted laser desorption […] time-of-flight (MALDI-TOF) mass spectrometry.\nThe identity of the TMD peptide sequences was analyzed with liquid chromatography (LC)-MS.\nMS was performed to identity APJ dimer interfaces in samples treated with TMD peptides. Cells were transfected with APJ and, 48 h later, treated with or without the indicated HIV TAT-TMD fused peptides (4 μM) for 60 min at 37 °C. Extracted proteins were immunoprecipitated using an anti-APJ antibody. Protein A/G PLUS-agarose beads were incubated with proteins for 2 h and washed four times with lysis buffer. The APJ complex was eluted from beads as described previously. Then, the endogenous APJ complex was analyzed with an AXIMA matrix-assisted laser desorption/ionization time-of-flight (MALDI-TOF) system (Shimazdu) in linear positive mode. The mass range was 4–10 kDa and the matrix was Sinapic Acid (SA), 10 mg/ml (50% acetonitrile (ACN), 50% H2O, 0.1% […] (TFA)). The results were calibrated with a Shimadzu MALDI calibration kit (Laser BioLabs)."}, "[3]": {"tested_on": "APJ dimer (APJ-Rluc / APJ-EGFP)", "experiment": "BRET, effect of interference peptides on APJ homodimers", "type": "cell-based, human", "source_text": "Figure 7 The effect of interference peptides on apelin receptor (APJ) dimers. […] BRET[1] was detected as described above."}, "[4]": {"tested_on": "human umbilical vein endothelial cells (HUVECs)", "experiment": "xCELLigence RTCA, apelin-13-induced cellular response (cell index) with or without interference peptide", "type": "cell-based", "conditions": "TMD1 4 μM with apelin-13 10 μM, 0.1 μM or 1 nM; average of quadruplicates", "protocol": "All curves were plotted as the average of quadruplicate treatments, with error bars shown as SEM.\nA background step (step 1) was performed before other experimental steps. The background step was performed with each well of the E-Plate 16 containing only culture media (100 μl/well) for 30 min at 37 °C, prior to the addition of 10000 HUVECs per well (100 μl/well). […] The schedule settings were as follows (RTCA Software 2.0): […]"}, "[5]": {"tested_on": "APJ homodimers (APJ-Rluc / APJ-EGFP)", "experiment": "BRET, effect of agonist/antagonist treatment on APJ homodimerization", "type": "cell-based, human", "conditions": "CHO cells co-expressing APJ-Rluc and APJ-EGFP (1:1); concentration not given; four independent experiments in triplicate", "protocol": "We further assessed APJ interactions by co-immunoprecipitation (Co-IP), BRET[1], and Förster resonance energy transfer (FRET). […] BRET studies were performed to confirm APJ homodimerization.\nFigure 2 Assessment of apelin receptor (APJ) dimerization using co-immunoprecipitation (Co-IP) and bioluminescence resonance energy transfer (BRET) assays. (A) Assessment of APJ homodimerization with Co-IP. Chinese hamster ovary (CHO) cells were either not transfected (mock) or transfected with HA-APJ, Myc-APJ, or both (co-transfection). HA-APJ and Myc-APJ were also mixed (mix). Immunoprecipitated samples were resolved by SDS-PAGE and immunoblotted with an anti-Myc antibody (upper panel). […] (B) Assessment of APJ homodimerization with BRET[1]. (C) BRET saturation curves. (D) Assessment of effects of agonist-treatment on dimerization by BRET[1]. For BRET, four independent experiments were performed with triplicate samples and the results were expressed as the mean ± SEM of four experiments ([…] versus control group; NS, not significant versus unstimulated cells).\nTo monitor constitutive APJ interactions, CHO cells were transfected with APJ-Rluc and APJ-EGFP plasmids at a ratio of 1:1, 1:2, 1:3, 1:4, 1:5, and 1:6 to express a constant amount of donor-labeled protein with increasing amounts of acceptor-labeled protein. At 24 h post-transfection, cells were trypsinized and plated on a 96 well microplate for 24 h in HEPES-buffered phenol red-free medium (Invitrogen, Life Technologies). Coelenterazine h (5 μM; Promega) was added for BRET measurements using a Tristar LB941 plate reader (Berthold) with an Rluc filter (400–475 nm) and a EGFP filter (500–550 nm). To monitor the induced interactions of APJ, BRET signals were measured as described above, with slight modifications. […] To measure the effects of interference peptides on APJ dimers, CHO cells were co-transfected with APJ-Rluc and APJ-EGFP (1:3) and incubated with interference peptides corresponding to TMD1, TMD2, TMD3, TMD4, TMD5, TMD6, and TMD7 at 37 °C (4 μM), and BRET[1] detected as described above."}, "[6]": {"tested_on": "APJ oligomers (APJ-Rluc, APJ-VN173, APJ-VC155)", "experiment": "BiFC-BRET, effect of agonist/antagonist treatment on APJ oligomerization", "type": "cell-based, human", "conditions": "CHO cells co-expressing APJ-Rluc, concentration not given, four independent experiments in triplicate", "protocol": "Additionally, BiFC-BRET assays were performed to detect APJ oligomerization in living cells. Two non-fluorescent fragments (pCE-BiFC-VN173 and pCE-BiFC-VC155) of Venus fluorescent protein were separately fused to APJ (APJ-VN173 and APJ-VC155) (Fig. 4A). CHO cells were then co-transfected with APJ-Rluc, APJ-VN173, and APJ-VC155 and observed with TIRFM.\nFigure 4 Assessment of apelin receptor (APJ) oligomerization with bioluminescence resonance energy transfer - bimolecular fluorescence complementation (BiFC-BRET). (A) Principle of BiFC-BRET. The assay examines the formation of functional Venus by the complementation of protein fragments fused to APJ. Association of APJ enables formation of a bimolecular fluorescent complex. If all three tagged APJ proteins interact, BRET can occur. (B) TIRFM detection of APJ dimers (yellow particles) after BiFC. (C) Assessment of APJ oligomerization with BiFC-BRET. (D) Assessment of agonist-induced oligomerization."}},
  "note": "“Also recorded” adds a separate entry of the source. No end group written: not given here.",
  "data": [
    {"compound": "Brc1c(NC2=NCCN2)ccc2nccnc12", "note": "[UK14,304]", "values": [
      {"measurement": "cell index response", "setting": "[1]", "value": "induces a dose-dependent increase in CI"}
    ]},
    {"compound": "calcitonin: stimulating serum-deprived CHO-K1 cells with calcitonin (CGNLSTCMLGTYTQDFNKFHTFPQTAIGVGAP; ends and bridges not checked; cysteine pairing not given here; UniProt P01258 85-116, looked up)", "values": [
      {"measurement": "cell index response", "setting": "CHO-K1 cells", "value": "a transient agonist-induced increase in CI lasting up to a few hours"}
    ]},
    {"compound": "apelin", "values": [
      {"measurement": "hydrolysis by ACE2", "setting": "[2]", "value": "high catalytic efficiency"}
    ]},
    {"compound": "PAIYMLVFLLGTTGNGLVLWTVFYGRKKRRQRRR [TMD1, HIV TAT-fused interference peptide derived from human APJ transmembrane domain 1]", "values": [
      {"measurement": "species detected by MALDI-TOF MS / effect of peptide on APJ homodimerization", "setting": "APJ homodimer; cells transfected with APJ, anti-APJ immunoprecipitation, MALDI-TOF linear positive mode, mass range 4–10 kDa, sinapic acid", "value": "TMD1 dimers, TMD1 tetramers, APJ, [APJ + TMD1], APJ dimers, and [APJ + TMD1] dimers were detected"},
      {"measurement": "binding to APJ (peptides encoding TMDs, MS)", "setting": "APJ homodimer; MALDI-TOF", "value": "can bind to APJ"},
      {"measurement": "effect on APJ dimer BRET signals", "setting": "[3]; CHO cells, APJ-Rluc:APJ-EGFP 1:3, peptide 4 μM, 37 °C, four independent experiments in triplicate", "value": "significantly reduced APJ dimer BRET signals"},
      {"measurement": "reduction of APJ dimer BRET signals", "setting": "[3]; CHO cells, APJ-Rluc:APJ-EGFP 1:3, peptide 4 μM, 37 °C, four independent experiments in triplicate, P < 0.01, one range for TMD1, 2, 3 and 4", "value": "55–75%"},
      {"measurement": "disruption of APJ (homo)dimerization (statement in words)", "setting": "[3]; interference peptides 4 μM, in vitro, by BRET and MS", "value": "disrupted APJ dimerization; also recorded: can effectively disrupt the formation of APJ homodimers; also recorded: disrupted APJ homodimerization in vitro"},
      {"measurement": "HUVEC cell index (CI), interference peptide with apelin-13", "setting": "[4]", "value": "led to a decreasing trend in the CI compared to that before treatment"}
    ]},
    {"compound": "apelin-17", "values": [
      {"measurement": "BRET signal versus unstimulated cells (APJ homodimer formation)", "setting": "[5]", "value": "not significantly different to those of unstimulated cells"},
      {"measurement": "BRET ratio versus unstimulated cells (APJ oligomerization, BiFC-BRET)", "setting": "[6]", "value": "the same as that of unstimulated cells"}
    ]}
  ]
}
